In patent publication US20190375708A1 (VenatoRx Pharmaceuticals, Inc., priority 2018, published 2019):

Key:
[1] = system: HBV replication in HepAD38 cells; assay: Anti-HBV replication assay in HepAD38 cells (QPCR of extracellular HBV DNA); type: cell-based, HBV (genotype D, serotype ayw); details: Hepatitis B virus, 168 h, 7 days incubation, extracellular HBV DNA by QPCR, read-out: Anti-HBV EC50
In short: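 EC50 values reflect 50% reduction of extracellular HBV DNA, measured by QPCR after 7-day treatment of tetracycline-deprived HepAD38 cells with compound […].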

[2] = In vitro cytotoxicity assay (MTT cell viability) in HepG2 cells; type: cell-based, human; details: human
In short: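 Using MTT conversion as the viability measure, HepG2 cells were incubated with compounds for 7 days (30 μM to 1.0 nM). Absorbance at 492 nm was normalized to vehicle and fitted to give CC50.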

Structure (SMILES): Cc1cc(NC(=O)c2c(C)c(C(=O)C(=O)NC3CCc4nc(N)sc4C3)n(C)c2C)ccc1F (stereo not shown) [Example 20, 5-(2-((2-amino-4,5,6,7-tetrahydrobenzo[d]thiazol-6-yl)amino)-2-oxoacetyl)-N-(4-fluoro-3-methylphenyl)-1,2,4-trimethyl-1H-pyrrole-3-carboxamide]
- EC50 [1]: < 50 nM
- CC50 at 7 days [2]: 500 to 4990 nM

Structure (SMILES): Cc1cc(NC(=O)c2c(C)c(C(=O)C(=O)NC3(c4nc(-c5ccncc5)no4)CCCCC3)n(C)c2C)ccc1F [Example 630, N-(4-fluoro-3-methylphenyl)-1,2,4-trimethyl-5-(2-oxo-2-((1-(3-(pyridin-4-yl)-1,2,4-oxadiazol-5-yl)cyclohexyl)amino)acetyl)-1H-pyrrole-3-carboxamide]
- EC50 [1]: < 50 nM
- CC50 at 7 days [2]: > 30000 nM

Structure (SMILES): Cc1c(C(=O)Nc2cc(F)c(F)c(F)c2)c(C)n(C)c1C(=O)C(=O)Nc1ccc(F)cn1 [Example 319, 5-(2-((5-fluoropyridin-2-yl)amino)-2-oxoacetyl)-1,2,4-trimethyl-N-(3,4,5-trifluorophenyl)-1H-pyrrole-3-carboxamide]
- EC50 [1]: < 50 nM
- CC50 at 7 days [2]: 5000 to 30000 nM

Structure (SMILES): COCC1(CNC(=O)C(=O)c2c(C)c(C(=O)Nc3ccc(F)c(C)c3)c(C)n2C)CCCCC1 [Example 358, N-(4-fluoro-3-methylphenyl)-5-(2-(((1-(methoxymethyl)cyclohexyl)methyl)amino)-2-oxoacetyl)-1,2,4-trimethyl-1H-pyrrole-3-carboxamide]
- EC50 [1]: < 50 nM
- CC50 at 7 days [2]: > 30000 nM

Structure (SMILES): Cc1c(C(=O)Nc2cc(F)c(F)c(F)c2)c(Cl)c(C(=O)C(=O)NC(C)(C)C)n1C [Example 369, 5-(2-(tert-butylamino)-2-oxoacetyl)-4-chloro-1,2-dimethyl-N-(3,4,5-trifluorophenyl)-1H-pyrrole-3-carboxamide]
- EC50 [1]: < 50 nM
- CC50 at 7 days [2]: > 30000 nM

Structure (SMILES): Cc1cc(NC(=O)c2c(Cl)c(C(=O)C(=O)NC3(CO)CC(F)(F)C3)n3c2CCCC3)ccc1F [Example 496, 2-chloro-3-(2-((3,3-difluoro-1-(hydroxymethyl)cyclobutyl)amino)-2-oxoacetyl)-N-(4-fluoro-3-methylphenyl)-5,6,7,8-tetrahydroindolizine-1-carboxamide]
- EC50 [1]: < 50 nM
- CC50 at 7 days [2]: 5000 to 30000 nM

Structure (SMILES): Cc1cc(NC(=O)c2c(C)c(C(=O)C(=O)N[C@@H]3C[C@H](O)[C@H]4OC(C)(C)O[C@H]43)n(C)c2C)ccc1F [Example 695, N-(4-fluoro-3-methylphenyl)-5-(2-(((3aS,4R,6S,6aR)-6-hydroxy-2,2-dimethyltetrahydro-4H-cyclopenta[d][1,3]dioxol-4-yl)amino)-2-oxoacetyl)-1,2,4-trimethyl-1H-pyrrole-3-carboxamide]
- EC50 [1]: < 50 nM
- CC50 at 7 days [2]: > 30000 nM

Structure (SMILES): Cc1cc(NC(=O)c2cc(C(=O)C(=O)NC(C)(C)C)n3c2CN(S(C)(=O)=O)CC3)ccc1F [Example 589, 6-(2-(tert-butylamino)-2-oxoacetyl)-N-(4-fluoro-3-methylphenyl)-2-(methylsulfonyl)-1,2,3,4-tetrahydropyrrolo[1,2-a]pyrazine-8-carboxamide]
- EC50 [1]: 500 to 1000 nM
- CC50 at 7 days [2]: > 30000 nM

Structure (SMILES): Cc1cc(NC(=O)c2c(C)c(C(=O)C(=O)NCC(C)(C)O)n(C)c2C)cnc1F [Example 183, N-(6-fluoro-5-methylpyridin-3-yl)-5-(2-((2-hydroxy-2-methylpropyl)amino)-2-oxoacetyl)-1,2,4-trimethyl-1H-pyrrole-3-carboxamide]
- EC50 [1]: 500 to 1000 nM
- CC50 at 7 days [2]: > 30000 nM

Structure (SMILES): Cc1c(C(=O)Nc2ccc(F)c(F)c2)c(C)n(C)c1C(=O)C(=O)Nc1cccnc1 [Example 296, N-(3,4-difluorophenyl)-1,2,4-trimethyl-5-(2-oxo-2-(pyridin-3-ylamino)acetyl)-1H-pyrrole-3-carboxamide]
- EC50 [1]: < 50 nM
- CC50 at 7 days [2]: > 30000 nM

Structure (SMILES): Cc1cc(NC(=O)c2c(C)c(C(=O)C(=O)N[C@@H]3CCc4nc(N)sc4C3)n(C)c2C)ccc1F [Example 76, (R)-5-(2-((2-amino-4,5,6,7-tetrahydrobenzo[d]thiazol-6-yl)amino)-2-oxoacetyl)-N-(4-fluoro-3-methylphenyl)-1,2,4-trimethyl-1H-pyrrole-3-carboxamide]
- EC50 [1]: < 50 nM
- CC50 at 7 days [2]: 5000 to 30000 nM

Structure (SMILES): COCC(C)(C)NC(=O)C(=O)c1c(C)c(C(=O)Nc2ccc(F)c(C)c2)c(C)n1C [Example 169, N-(4-fluoro-3-methylphenyl)-5-(2-((1-methoxy-2-methylpropan-2-yl)amino)-2-oxoacetyl)-1,2,4-trimethyl-1H-pyrrole-3-carboxamide]
- EC50 [1]: < 50 nM
- CC50 at 7 days [2]: > 30000 nM

Structure (SMILES): Cc1cc(NC(=O)c2c(Cl)c(C(=O)C(=O)N[C@H](C)C(F)(F)F)n3c2CCC3)cnc1F [Example 576, (R)-6-chloro-N-(6-fluoro-5-methylpyridin-3-yl)-5-(2-oxo-2-((1,1,1-trifluoropropan-2-yl)amino)acetyl)-2,3-dihydro-1H-pyrrolizine-7-carboxamide]
- EC50 [1]: 50 to 499 nM
- CC50 at 7 days [2]: 5000 to 30000 nM

Structure (SMILES): Cc1cc(NC(=O)c2c(Cl)c(C(=O)C(=O)NCC(C)(C)O)n3c2CCC3)ccc1F [Example 550, 6-chloro-N-(4-fluoro-3-methylphenyl)-5-(2-((2-hydroxy-2-methylpropyl)amino)-2-oxoacetyl)-2,3-dihydro-1H-pyrrolizine-7-carboamide]
- EC50 [1]: < 50 nM
- CC50 at 7 days [2]: > 30000 nM

Structure (SMILES): O=C(N[C@H]1CCC[C@H]1O)C(=O)c1c(Cl)c(C(=O)Nc2ccc(F)c(F)c2)c2n1CCC2 [Example 571, 6-chloro-N-(3,4-difluorophenyl)-5-(2-(((1S,2R)-2-hydroxycyclopentyl)amino)-2-oxoacetyl)-2,3-dihydro-1H-pyrrolizine-7-carboxamide]
- EC50 [1]: 50 to 499 nM
- CC50 at 7 days [2]: > 30000 nM

Structure (SMILES): CNC(=O)[C@@H](NC(=O)C(=O)c1c(C)c(C(=O)Nc2ccc(F)c(C)c2)c(C)n1C)C1CCC1 [Example 124, (S)-5-(2-((1-cyclobutyl-2-(methylamino)-2-oxoethyl)amino)-2-oxoacetyl)-N-(4-fluoro-3-methylphenyl)-1,2,4-trimethyl-1H-pyrrole-3-carboxamide]
- EC50 [1]: < 50 nM
- CC50 at 7 days [2]: 5000 to 30000 nM

Structure (SMILES): Cc1c(C(=O)Nc2ccc(F)c(Cl)c2)c(C)n(C)c1C(=O)C(=O)NC12CCC(O)(CC1)CC2 [Example 357, N-(3-chloro-4-fluorophenyl)-5-(2-((4-hydroxybicyclo[2.2.2]octan-1-yl)amino)-2-oxoacetyl)-1,2,4-trimethyl-1H-pyrrole-3-carboxamide]
- EC50 [1]: < 50 nM
- CC50 at 7 days [2]: > 30000 nM

Structure (SMILES): COc1c(C(=O)Nc2ccc(F)c(F)c2)c(C)n(C)c1C(=O)C(=O)NC(C)(C)C [Example 380]
- EC50 [1]: < 50 nM
- CC50 at 7 days [2]: > 30000 nM

Structure (SMILES): Cc1cc(NC(=O)c2c(C)c(C(=O)C(=O)NC3(CO)CCC3)n(C)c2C)ccc1F [Example 12, N-(4-fluoro-3-methylphenyl)-5-(2-((1-(hydroxymethyl)cyclobutyl)amino)-2-oxoacetyl)-1,2,4-trimethyl-1H-pyrrole-3-carboxamide]
- EC50 [1]: < 50 nM
- CC50 at 7 days [2]: > 30000 nM

Structure (SMILES): Cc1noc([C@@H](C)NC(=O)C(=O)c2c(Cl)c(C(=O)Nc3ccc(F)c(Cl)c3)c3n2CCCC3)n1 [Example 524, (R)-2-chloro-N-(3-chloro-4-fluorophenyl)-3-(2-((1-(3-methyl-1,2,4-oxadiazol-5-yl)ethyl)amino)-2-oxoacetyl)-5,6,7,8-tetrahydroindolizine-1-carboxamide]
- EC50 [1]: 50 to 499 nM
- CC50 at 7 days [2]: 5000 to 30000 nM

Structure (SMILES): Cc1cc(NC(=O)c2c(C)c(C(=O)C(=O)Nc3cc(F)[nH]c(=O)c3)n(C)c2C)ccc1F [Example 674, 5-(2-((6-fluoro-2-oxo-1,2-dihydropyridin-4-yl)amino)-2-oxoacetyl)-N-(4-fluoro-3-methylphenyl)-1,2,4-trimethyl-1H-pyrrole-3-carboxamide]
- EC50 [1]: 50 to 499 nM
- CC50 at 7 days [2]: 5000 to 30000 nM

Structure (SMILES): Cc1cc(NC(=O)c2c(Cl)c(C(=O)C(=O)NC3(CO)CC(F)(F)C3)n3c2CCC3)ccc1F [Example 548, 6-chloro-5-(2-((3,3-difluoro-1-(hydroxymethyl)cyclobutyl)amino)-2-oxoacetyl)-N-(4-fluoro-3-methylphenyl)-2,3-dihydro-1H-pyrrolizine-7-carboxamide]
- EC50 [1]: < 50 nM
- CC50 at 7 days [2]: 5000 to 30000 nM

Structure (SMILES): Cc1cc(NC(=O)c2c(C)c(C(=O)C(=O)N[C@H]3CC[C@@H](C(=O)O)CC3)n(C)c2C)ccc1F [Example 279, (1s,4s)-4-(2-(4-((4-fluoro-3-methylphenyl)carbamoyl)-1,3,5-trimethyl-1H-pyrrol-2-yl)-2-oxoacetamido)cyclohexane-1-carboxylic acid]
- EC50 [1]: 50 to 499 nM
- CC50 at 7 days [2]: > 30000 nM

Structure (SMILES): Cc1cc(NC(=O)c2c(C)c(C(=O)C(=O)NC(C)(C)C(F)(F)F)n(C)c2C)ccc1F [Example 9, N-(4-fluoro-3-methylphenyl)-1,2,4-trimethyl-5-(2-oxo-2-((1,1,1-trifluoro-2-methylpropan-2-yl)amino)acetyl)-1H-pyrrole-3-carboxamide]
- EC50 [1]: < 50 nM
- CC50 at 7 days [2]: > 30000 nM

Structure (SMILES): Cc1cc(NC(=O)c2c(C)c(C(=O)C(=O)N[C@H](C)C(F)(F)F)n(C)c2C)cnc1F [Example 165, (R)-N-(6-fluoro-5-methylpyridin-3-yl)-1,2,4-trimethyl-5-(2-oxo-2-((1,1,1-trifluoropropan-2-yl)amino)acetyl)-1H-pyrrole-3-carboxamide]
- EC50 [1]: < 50 nM
- CC50 at 7 days [2]: > 30000 nM

Structure (SMILES): Cc1cc(NC(=O)c2c(C)c(C(=O)C(=O)N3CCC(O)C(C)(C)C3)n(C)c2C)ccc1F (stereo not shown) [Example 53, N-(4-fluoro-3-methylphenyl)-5-(2-(4-hydroxy-3,3-dimethylpiperidin-1-yl)-2-oxoacetyl)-1,2,4-trimethyl-1H-pyrrole-3-carboxamide]
- EC50 [1]: 50 to 499 nM
- CC50 at 7 days [2]: > 30000 nM
